Assay results reported in patent US20240181087A1, “COMPOSITION FOR CONTRAST IMAGING OF CANCER” (ASTELLAS PHARMA INC., priority 2021, published 2024).

System: mouse tumor cell 4T1
Assay: near-infrared fluorescence imaging after administration into tumor, 4T1 breast cancer model
Type: in vivo
Conditions: 4T1 tumor, 1 mg/mL saline, fluorescence imaging, incl. during tumor excision operation
From the text: A syngeneic tumor transplanted mouse model was created as follows referring to “Gan-Shikkan Model no Sakusei to Riyo (Cancer-Creation and Use of Disease Model)” (Takuro Nakamura, LIC, 2012). • (Breast Cancer) A tumor model was created by breeding a normal Balb/c mouse (weight: about 20 g to 30 g) for 14 days with mouse tumor cell 4T1 subcutaneously administered thereto. • (Colorectal Cancer) A tumor model was created by breeding a normal Balb/c mouse (weight: about 20 g to 30 g) for 14 days with CT26 (colorectal cancer cell) subcutaneously administered thereto. • (Skin Cancer) A tumor model was created by breeding a C57BL/6 mouse (weight: about 15 g to 20 g) for 14 days with B16F1 (skin cancer cell) subcutaneously administered thereto.
Subsequently, to the tumor of each of the model mice, 0.02 to 0.05 mL of a saline containing the compound III or ICG (concentration of the compound III or ICG: 1 mg/mL) was administered, and fluorescence imaging was performed transdermally with a near-infrared fluorescence camera (Fluobeam, manufactured by Fluoptics, http://www.solve-net.com/info/wp-content/uploads/downloads/2013/12/Fluobeam.pdf) (excitation wavelength: 780 nm, detection wavelength: 800 nm or more).

SMILES: CC1(C)C(/C=C/C=C/C=C/C=C2\N(CCCCS(=O)(=O)O)c3ccc4ccccc4c3C2(C)C)=[N+](CCCCS(=O)(=O)[O-])c2ccc3ccccc3c21 [ICG, indocyanine green, reference compound]
- drawing of tumor outline / exudation to surrounding tissues: fluorescence signals were emitted outside the tumor tissue, and the outline of the tumor could not be drawn
